Assay results: publication PMC10560236, “A protein kinase C α and β inhibitor blunts hyperphagia to halt renal function decline and reduces adiposity in a rat model of obesity-driven type 2 diabetes” (Scientific Reports, 2023)

Legend:
PKCε = biological target: T1, PKCε (Homo sapiens, UniProt Q02156); test: Z'-Lyte recombinant enzyme assay, PKCε; assay type: biochemical
T1 sequence (Q02156 1-737): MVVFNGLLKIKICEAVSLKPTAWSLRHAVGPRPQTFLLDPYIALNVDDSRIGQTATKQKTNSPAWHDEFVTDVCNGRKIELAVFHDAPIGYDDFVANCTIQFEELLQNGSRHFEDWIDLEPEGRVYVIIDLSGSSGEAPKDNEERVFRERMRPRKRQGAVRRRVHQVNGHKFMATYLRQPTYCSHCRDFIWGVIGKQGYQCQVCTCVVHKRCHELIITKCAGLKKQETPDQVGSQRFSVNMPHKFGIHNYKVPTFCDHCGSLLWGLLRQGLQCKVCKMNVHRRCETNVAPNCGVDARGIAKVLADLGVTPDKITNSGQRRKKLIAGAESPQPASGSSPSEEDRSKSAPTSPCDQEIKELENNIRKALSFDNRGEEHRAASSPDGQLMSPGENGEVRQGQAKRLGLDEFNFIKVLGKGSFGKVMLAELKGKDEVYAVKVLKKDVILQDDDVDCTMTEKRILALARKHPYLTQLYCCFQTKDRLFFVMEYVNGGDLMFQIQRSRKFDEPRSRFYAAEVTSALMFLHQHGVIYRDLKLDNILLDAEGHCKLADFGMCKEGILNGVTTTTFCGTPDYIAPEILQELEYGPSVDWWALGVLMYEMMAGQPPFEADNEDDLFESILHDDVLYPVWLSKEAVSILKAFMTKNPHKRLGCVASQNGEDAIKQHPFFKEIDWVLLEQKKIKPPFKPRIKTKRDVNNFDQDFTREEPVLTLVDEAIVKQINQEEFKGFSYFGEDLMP
Description: (§1) Half maximal inhibitory concentrations of Cmpd 1 were determined by Z’-Lyte biochemical assays (Life Technologies SelectScreen™ Kinase Profiling Services, Thermo Fisher Scientific). Kinome selectivity was determined at 1 μM Cmpd 1 concentration against a panel of 119 kinases. The original kinome tree in Fig. 1b was taken from Ref.[68].

PKCη = PKCη (Homo sapiens, UniProt P24723); test: Z'-Lyte recombinant enzyme assay, PKCη; assay type: biochemical
Sequence of PKCη (P24723 whole entry): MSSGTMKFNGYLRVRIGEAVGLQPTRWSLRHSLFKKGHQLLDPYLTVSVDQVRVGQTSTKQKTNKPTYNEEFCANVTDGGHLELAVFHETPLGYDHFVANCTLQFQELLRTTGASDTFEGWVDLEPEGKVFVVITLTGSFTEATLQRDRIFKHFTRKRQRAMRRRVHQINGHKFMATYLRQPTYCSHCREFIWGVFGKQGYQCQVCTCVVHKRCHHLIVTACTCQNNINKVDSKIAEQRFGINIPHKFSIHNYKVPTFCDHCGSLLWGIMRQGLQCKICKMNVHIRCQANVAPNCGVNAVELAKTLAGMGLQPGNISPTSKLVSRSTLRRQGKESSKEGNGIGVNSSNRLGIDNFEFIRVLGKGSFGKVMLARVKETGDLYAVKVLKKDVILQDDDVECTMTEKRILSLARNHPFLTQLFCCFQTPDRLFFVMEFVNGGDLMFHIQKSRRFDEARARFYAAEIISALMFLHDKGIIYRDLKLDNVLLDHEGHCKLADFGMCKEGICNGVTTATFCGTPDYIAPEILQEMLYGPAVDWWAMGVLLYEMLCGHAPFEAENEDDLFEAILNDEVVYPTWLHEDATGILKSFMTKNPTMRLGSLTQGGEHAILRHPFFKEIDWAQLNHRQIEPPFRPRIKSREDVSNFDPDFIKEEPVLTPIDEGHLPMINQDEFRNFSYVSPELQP
Description: as §1

PKCι = biological target: T2, PKCι (Homo sapiens, UniProt P41743); test: Z'-Lyte recombinant enzyme assay, PKCι; assay type: biochemical
T2 sequence (P41743 1-596): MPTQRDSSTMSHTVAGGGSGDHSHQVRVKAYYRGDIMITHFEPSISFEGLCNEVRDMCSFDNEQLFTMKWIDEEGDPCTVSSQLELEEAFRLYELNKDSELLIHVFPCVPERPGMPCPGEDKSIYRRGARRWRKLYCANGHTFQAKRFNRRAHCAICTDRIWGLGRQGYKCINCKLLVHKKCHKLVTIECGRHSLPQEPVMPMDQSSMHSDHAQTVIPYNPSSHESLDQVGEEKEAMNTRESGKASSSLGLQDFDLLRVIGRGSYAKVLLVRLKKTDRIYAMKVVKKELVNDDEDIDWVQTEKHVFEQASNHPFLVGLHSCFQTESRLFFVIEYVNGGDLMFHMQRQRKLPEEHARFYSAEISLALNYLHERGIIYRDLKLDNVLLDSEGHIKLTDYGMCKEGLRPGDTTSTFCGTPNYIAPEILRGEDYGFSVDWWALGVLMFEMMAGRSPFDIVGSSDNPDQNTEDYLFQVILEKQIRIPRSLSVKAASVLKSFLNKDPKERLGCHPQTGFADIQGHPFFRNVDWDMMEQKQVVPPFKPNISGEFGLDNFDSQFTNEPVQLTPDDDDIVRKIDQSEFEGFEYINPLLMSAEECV
Description: as §1

ZSF1 obese rats = test: 7-day oral gavage study, food consumption and body weight; assay type: in vivo, rat; conditions: 100 mpk daily oral gavage, 7 days

Cc1ncc(F)c(Nc2n[nH]c3c2CN(C(=O)N2C[C@@H](C)N(CC4CCOCC4)C[C@@H]2C)C3(C)C)n1 [Cmpd 1, 5-[(2S,5R)-2,5-dimethyl-4-(tetrahydro-2H-pyran-4-ylmethyl)piperazin-l-yl]carbonyl-N-(5-fluoro-2-methylpyrimidin-4-yl)-6,6-dimethyl-1,4,5,6-tetrahydropyrrolo[3,4-c]pyrazol-3-amine]
IC50 (PKCε): 623 nM | IC50 (PKCη): 1520 nM | IC50 (PKCι): > 10000 nM | Animal body weights (ZSF1 obese rats): decreased | Food consumption (ZSF1 obese rats): decreased
